Test results taken from patent US12661355B2, “Compounds and methods for inducing UCP1 expression” (The Regents of the University of California, priority 2020, dated 2026).

System: CYTC and GAPDH
Experiment: Western blot of mitochondria-associated proteins, CYTC and GAPDH
Format: cell-based, mouse
Conditions: brown adipocytes, 10 μM
Experimental: Cells and tissues were lysed in 10 mM Tris pH 7.5, 10 mM NaCl, 1 mM EDTA and 0.5% Triton X-100, supplemented with complete mini EDTA-free protease (Roche Diagnostics) and phosphatase (Cocktail 2 and 3, Sigma) inhibitors, followed by 10 second sonication. For analysis of mitochondrial proteins, mitochondria were isolated from cells by dual centrifugation, as described. Protein lysates were separated by SDS-PAGE and transferred to a nitrocellulose membrane. Transfer was confirmed by Ponceau staining (P7170, Sigma). After blocking in 5% milk, 0.1% Tween-20 in Tris-buffered saline (TBS), primary antibody was incubated overnight at 4° C. in 5% bovine serum albumin and 0.1% Tween-20 in TBS. Primary antibodies against ACTB (GTX109639, GeneTex), AKAP1 (5203, Cell Signaling), AKAP6 (07-087, Millipore), Cytochrome c (136F3, Cell Signaling), electron transport chain protein complexes (Total OXPHOS rodent WB antibody cocktail ab110413, Abcam), GAPDH (GTX100118, Genetex), active p38 MAPK (V1211, Promega), total p38 MAPK (8690, Cell Signaling), PGC1α (AB3242, Millipore), phospho-(Ser/Thr) PKA substrate (9621, Cell Signaling), PKA C-α (4782, Cell Signaling), PKA RII-β (ab75993, Abcam), and UCP1 (662045, Calbiochem) were used at 1:2000. […] Quantification using representative bands from the Ponceau staining was performed with ImageJ. […]

## COc1ccc(NC(=O)CSc2nc3ccccc3c(=O)[nH]2)c(OC)c1 [Z160]
  levels of CYTC and GAPDH in the mitochondrial fraction: not altered
